For this assay, the target named is c-Met kinase (h-Met; histidine-tagged c-Met catalytic domain fusion protein) (Homo sapiens (Human), UniProt P08581). The experiment in a line: In Vitro c-Met Kinase Enzyme Assays. It counts as biochemical. The following applies: phosphorylation of poly Glu-Tyr, 5 μM ATP, 25 minutes at 30° C. As to the method: Compounds were screened in vitro for their ability to inhibit c-Met kinase activity. […] Briefly, histidine-tagged c-Met catalytic domain fusion protein (Invitrogen, #PV3143) was used for the assay. […] The reaction lasted for 25 minutes at 30° C. After the reaction was completed, the contents of the plates was discarded. Plates were then washed with TBS-T (250 μL/well, 5×) and then blocked with TBS-T containing 1% BSA for 2 hours. The contents of the plates was discarded, and 100 μL (per well) of peroxidase-labeled anti-phospho-tyrosine antibody (Sigma, #A5964) diluted (1:60,000) in 1% BSA containing TBS-T were then added and incubated for 1 hour. Plates were washed with TBS-T ([…], 5×) and followed by the color reaction using 100 μL (1:1 mixture) of H2O2 and tetramethylbenzidine (R&D Systems, #DY999). The reaction was stopped in minutes with 100 μL of 2 N H2SO4. The optical density was measured immediately using a microplate reader at 450 nm with wavelength correction at 540 nm. IC50 values were calculated with the GraphPad Prism software. The linear range (i.e., the time period over which the rate remained equivalent to the initial rate) was determined for the kinase and IC50 determinations were performed within this range.
Chain of c-Met kinase (h-Met; histidine-tagged c-Met catalytic domain fusion protein) (P08581 1078-1345): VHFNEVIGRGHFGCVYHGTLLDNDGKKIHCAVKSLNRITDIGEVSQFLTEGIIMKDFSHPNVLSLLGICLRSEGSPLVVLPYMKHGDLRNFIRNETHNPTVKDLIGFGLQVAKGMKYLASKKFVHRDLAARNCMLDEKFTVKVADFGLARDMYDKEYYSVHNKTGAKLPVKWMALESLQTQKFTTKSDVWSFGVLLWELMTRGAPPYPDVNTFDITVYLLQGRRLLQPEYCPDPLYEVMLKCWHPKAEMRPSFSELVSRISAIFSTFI

For 31 compounds, IC50 results are on record in US9944645B2, “Imidazotriazines and imidazopyrimidines as kinase inhibitors” (Incyte Holdings Corporation, priority 2006, dated 2018).

A word on the pIC50: it is −log10 of the IC50, conventionally taken in molar units. A high value points to a low IC50.

Each structure is given as a SMILES string. pIC50: −log10 of the molar value.

The compound `N#CC1(c2ccc(-c3cnc4ncc(C5(c6ccc7ncccc7c6)CC5)n4c3)cc2)CC1` [Example 64, 1-{4-[3-(1-Quinolin-6-ylcyclopropyl)imidazo[1,2-a]pyrimidin-6-yl]phenyl}cyclopropanecarbonitrile] gave a pIC50 of more than 6.30.

The compound `CN(C)S(=O)(=O)c1ccc(-c2cnc3ncc(C4(c5ccc6ncccc6c5)CC4)n3c2)cc1` [Example 65, N,N-Dimethyl-4-[3-(1-quinolin-6-ylcyclopropyl)imidazo[1,2-a]pyrimidin-6-yl]benzenesulfonamide] showed a pIC50 of more than 6.30.

Compound `COC(=O)NCc1ccc(-c2cnc3ncc(C4(c5ccc6ncccc6c5)CC4)n3c2)cc1F` [Example 66, Methyl 2-fluoro-4-[3-(1-quinolin-6-ylcyclopropyl)imidazo[1,2-a]pyrimidin-6-yl]benzylcarbamate] showed a pIC50 of more than 6.30. `CN(C)C(=O)NCc1ccc(-c2cnc3ncc(C4(c5ccc6ncccc6c5)CC4)n3c2)cc1F` [Example 67, N′-2-Fluoro-4-[3-(1-quinolin-6-ylcyclopropyl)imidazo[1,2-a]pyrimidin-6-yl]benzyl-N,N-dimethylurea]: the pIC50 is more than 6.30. `O[C@@H]1CCN(Cc2ccc(-c3cnc4ncc(C5(c6ccc7ncccc7c6)CC5)n4c3)cc2F)C1` [Example 68, (3R)-1-{2-Fluoro-4-[3-(1-quinolin-6-ylcyclopropyl)imidazo[1,2-a]pyrimidin-6-yl]benzyl}pyrrolidin-3-ol] gave a pIC50 of more than 6.30. `Fc1cc(-c2cnc3ncc(C4(c5ccc6ncccc6c5)CC4)n3c2)ccc1Cn1cccn1` [Example 69, 6-(1-{6-[3-Fluoro-4-(1H-pyrazol-1-ylmethyl)phenyl]imidazo[1,2-a]pyrimidin-3-yl}cyclopropyl)quinoline]: the pIC50 is more than 6.30. For the compound `O=C1OCCN1Cc1ccc(-c2cnc3ncc(C4(c5ccc6ncccc6c5)CC4)n3c2)cc1F` [Example 70, 3-{2-Fluoro-4-[3-(1-quinolin-6-ylcyclopropyl)imidazo[1,2-a]pyrimidin-6-yl]benzyl}-1,3-oxazolidin-2-one], the pIC50 was more than 6.30. Take `CNC(=O)c1ccc(-c2cnc3ncc(Cc4ccc5nccnc5c4)n3n2)cc1F` [Example 71, 2-Fluoro-N-methyl-4-[7-(quinoxalin-6-ylmethyl)imidazo[1,2-b][1,2,4]triazin-2-yl]benzamide]: the pIC50 was more than 6.30.

In the case of `Cc1nc(-c2cnc3ncc(C4(c5ccc6ncccc6c5)CC4)n3c2)cs1` [Example 73, 6-{1-[6-(2-Methyl-1,3-thiazol-4-yl)imidazo[1,2-a]pyrimidin-3-yl]cyclopropyl}quinoline], the pIC50 was more than 6.30. `c1cnc2ccc(C3(c4cnc5ncc(-c6cscn6)cn45)CC3)cc2c1` [Example 74, 6-{1-[6-(1,3-Thiazol-4-yl)imidazo[1,2-a]pyrimidin-3-yl]cyclopropyl}quinoline] showed a pIC50 of more than 6.30.

`CNC(=O)c1ccc(-c2cnc3ncc(C4(c5ccc6ncccc6c5)CC4)n3c2)c(F)c1` [Example 75, 3-Fluoro-N-methyl-4-[3-(1-quinolin-6-ylcyclopropyl)imidazo[1,2-a]pyrimidin-6-yl]benzamide] showed a pIC50 of more than 6.30. With `O=C(c1ccc(-c2cnc3ncc(C4(c5ccc6ncccc6c5)CC4)n3c2)c(F)c1)N1CC[C@H](O)C1` [Example 76, (3S)-1-{3-Fluoro-4-[3-(1-quinolin-6-ylcyclopropyl)imidazo[1,2-a]pyrimidin-6-yl]benzoyl}pyrrolidin-3-ol] the figure was more than 6.30.

The compound `CNC(=O)c1cc(F)c(-c2cnc3ncc(C4(c5ccc6ncccc6c5)CC4)n3c2)cc1F` [Example 77, 2,5-Difluoro-N-methyl-4-[3-(1-quinolin-6-ylcyclopropyl)imidazo[1,2-a]pyrimidin-6-yl]benzamide] gave a pIC50 of more than 6.30.

`NC(=O)c1cc(F)c(-c2cnc3ncc(C4(c5ccc6ncccc6c5)CC4)n3c2)cc1F` [Example 78, 2,5-Difluoro-4-[3-(1-quinolin-6-ylcyclopropyl)imidazo[1,2-a]pyrimidin-6-yl]benzamide]: the pIC50 was more than 6.30.

`O=C(NC1CC1)c1cc(F)c(-c2cnc3ncc(C4(c5ccc6ncccc6c5)CC4)n3c2)cc1F` [Example 79, N-Cyclopropyl-2,5-difluoro-4-[3-(1-quinolin-6-ylcyclopropyl)imidazo[1,2-a]pyrimidin-6-yl]benzamide] gave a pIC50 of more than 6.30. Compound `O=C(N[C@H]1CC[C@H](O)CC1)c1cc(F)c(-c2cnc3ncc(C4(c5ccc6ncccc6c5)CC4)n3c2)cc1F` [Example 80, 2,5-Difluoro-N-(trans-4-hydroxycyclohexyl)-4-[3-(1-quinolin-6-ylcyclopropyl)imidazo[1,2-a]pyrimidin-6-yl]benzamide] showed a pIC50 of more than 6.30. With `O=C1CCCN1c1ccc(-c2cnc3ncc(C4(c5ccc6ncccc6c5)CC4)n3c2)cc1F` [Example 81, 1-{2-Fluoro-4-[3-(1-quinolin-6-ylcyclopropyl)imidazo[1,2-a]pyrimidin-6-yl]phenyl}pyrrolidin-2-one] the figure was more than 5.70; with `O=C1OCCN1c1ccc(-c2cnc3ncc(C4(c5ccc6ncccc6c5)CC4)n3c2)cc1F` [Example 82, 3-{2-Fluoro-4-[3-(1-quinolin-6-ylcyclopropyl)imidazo[1,2-a]pyrimidin-6-yl]phenyl}-1,3-oxazolidin-2-one], more than 6.30. On to `CCOC(=O)N1CCC(n2cc(-c3cnc4ncc(C5(c6ccc7ncccc7c6)CC5)n4c3)cn2)CC1` [Example 83, Ethyl 4-{4-[3-(1-quinolin-6-ylcyclopropyl)imidazo[1,2-a]pyrimidin-6-yl]-1H-pyrazol-1-yl}piperidine-1-carboxylate], for which the pIC50 was more than 6.30. In turn, `CN(C)C(=O)Cn1cc(-c2ccc(-c3cnc4ncc(C5(c6ccc7ncccc7c6)CC5)n4c3)cc2F)cn1` [Example 84, 2-(4-{2-Fluoro-4-[3-(1-quinolin-6-ylcyclopropyl)imidazo[1,2-a]pyrimidin-6-yl]phenyl}-1H-pyrazol-1-yl)-N,N-dimethylacetamide] showed a pIC50 of more than 6.30. `CNC(=O)c1ccc(-c2ccc(-c3cnc4ncc(C5(c6ccc7ncccc7c6)CC5)n4c3)cc2F)cn1` [Example 85, 5-{2-Fluoro-4-[3-(1-quinolin-6-ylcyclopropyl)imidazo[1,2-a]pyrimidin-6-yl]phenyl}-N-methylpyridine-2-carboxamide] gave a pIC50 of more than 6.30.

The compound `CN(C)C(=O)c1ccc(-c2ccc(-c3cnc4ncc(C5(c6ccc7ncccc7c6)CC5)n4c3)cc2F)cn1` [Example 86, 5-{2-Fluoro-4-[3-(1-quinolin-6-ylcyclopropyl)imidazo[1,2-a]pyrimidin-6-yl]phenyl}-N,N-dimethylpyridine-2-carboxamide] showed a pIC50 of more than 6.30. With `Cn1cc(-c2ccc(-c3cnc4ncc(C5(c6ccc7ncccc7c6)CC5)n4c3)cc2F)cn1` [Example 87, 6-(1-{6-[3-Fluoro-4-(1-methyl-1H-pyrazol-4-yl)phenyl]imidazo[1,2-a]pyrimidin-3-yl}cyclopropyl)quinoline] the figure was more than 6.30; with `c1cnc2ccc(C3(c4cnc5ncc(-c6cnn(C7CCOC7)c6)cn45)CC3)cc2c1` (stereo not shown) [Example 88, 6-(1-{6-[1-(Tetrahydrofuran-3-yl)-1H-pyrazol-4-yl]imidazo[1,2-a]pyrimidin-3-yl}cyclopropyl)quinoline], more than 6.30. `c1ccc(CN2CCC(n3cc(-c4cnc5ncc(C6(c7ccc8ncccc8c7)CC6)n5c4)cn3)C2)cc1` (stereo not shown) [Example 89, 6-(1-{6-[1-(1-Benzylpyrrolidin-3-yl)-1H-pyrazol-4-yl]imidazo[1,2-a]pyrimidin-3-yl}cyclopropyl)quinoline] showed a pIC50 of more than 5.52. `Cn1cc(-c2cnc3ncc(C4(c5ccc6ncccc6c5)CC4)n3c2)cn1` [Example 90, 6-{1-[6-(1-Methyl-1H-pyrazol-4-yl)imidazo[1,2-a]pyrimidin-3-yl]cyclopropyl}quinoline] had a pIC50 of more than 6.30. `CN(C)C(=O)N1CCC(n2cc(-c3cnc4ncc(C5(c6ccc7ncccc7c6)CC5)n4c3)cn2)CC1` [Example 91, N,N-Dimethyl-4-{4-[3-(1-quinolin-6-ylcyclopropyl)imidazo[1,2-a]pyrimidin-6-yl]-1H-pyrazol-1-yl}piperidine-1-carboxamide] gave a negative logarithm of the IC50 (pIC50) of more than 6.30. The result for `OC1CCC(n2cc(-c3cnc4ncc(C5(c6ccc7ncccc7c6)CC5)n4c3)cn2)CC1` (stereo not shown) [Example 92, 4-{4-[3-(1-Quinolin-6-ylcyclopropyl)imidazo[1,2-a]pyrimidin-6-yl]-1H-pyrazol-1-yl}cyclohexanol] reads more than 6.30; that for `N#CCn1cc(-c2cnc3ncc(C4(c5ccc6ncccc6c5)CC4)n3c2)cn1` [Example 93, {4-[3-(1-Quinolin-6-ylcyclopropyl)imidazo[1,2-a]pyrimidin-6-yl]-1H-pyrazol-1-yl}acetonitrile], more than 6.30. `CNC(=O)c1ccc(-c2ccc(-c3cnc4ncc(C5(c6ccc7ncccc7c6)CC5)n4n3)cc2)cn1` [Example 94, N-Methyl-5-{4-[7-(1-quinolin-6-ylcyclopropyl)imidazo[1,2-b][1,2,4]triazin-2-yl]phenyl}pyridine-2-carboxamide] showed a pIC50 of more than 6.30. With `c1cnc2ccc(C3(c4cnc5ncc(-c6ccc(-c7cncnc7)cc6)nn45)CC3)cc2c1` [Example 95, 6-{1-[2(4-Pyrimidin-5-yl-phenyl)imidazo[1,2-b][1,2,4]triazin-7-yl]cyclopropyl}quinoline], the pIC50 was more than 6.30.
